Data published in patent US12492204B2, “Substituted (7H-pyrrolo[2,3-D]pyrimidin-4-yl) amino compounds useful as JAK 1 inhibitors” (CHEMWERTH, INC., priority 2019, dated 2025).

Key:
TYK2 = TYK2 (Homo sapiens (Human), UniProt P29597); assay: TYK2 enzymatic assay; assay type: biochemical; conditions: ATP 16 μM, Peptide30
JAK2 = JAK2 (Homo sapiens (Human), UniProt O60674); assay: JAK2 enzymatic assay; assay type: biochemical; conditions: ATP 6.5 μM, Peptide22
Procedure: (§1) A. JAK1, JAK2, and JAK3 Enzymatic Assays
(§2) The JAK enzymatic assay used the following reagents.
JAK2 (Carna Bio, USA, Inc. Natick, MA, Cat.No. 08-045)
(§3) Preparation of assay plate. Each sample or reference compound was diluted to 50× the desired highest inhibitor concentration with DMSO. Each sample or reference compound was serially diluted using a 96-well source plate so that there were 10 concentrations for testing. 10 μL from each well of the source plate was transferred to a 96-well intermediate plate. […] 5 μL from each well of the 96-well intermediate plate was transferred to a 384-well plate.
(§4) Kinase reaction. […] The term “max” refers to the DMSO control and “min” stands for low control. Curve-fitting of the data was performed using Xlfit excel add-in version 5.4.0.8 to obtain IC50 values. Equation used was Y=Bottom+(Top−Bottom)/(1+(Log IC50/X)^HillSlope. The peptide substrates used for each kinase, peptide concentration, enzyme concentration, and ATP concentrations are presented in TABLE 2.

JAK3 = JAK3 (Homo sapiens (Human), UniProt P52333); assay: JAK3 enzymatic assay; assay type: biochemical; conditions: ATP 6.2 μM, Peptide22
Procedure: as §1, §2
JAK3 (Carna Bio, USA, Inc. Natick, MA, Cat.No. 08-046)
as §3, §4

JAK1 = JAK1 (Homo sapiens (Human), UniProt P23458); assay: JAK1 enzymatic assay; assay type: biochemical; conditions: for IC50: ATP 66 μM, Peptide D; for selectivity for JAK1 over JAK2 / selectivity for JAK1 over JAK3: from enzymatic IC50 values; for selectivity for JAK1 over JAK2: JAK1 vs JAK2; for selectivity for JAK1 over JAK3: JAK1 vs JAK3
Procedure: as §1, §2, §3, §4

[1] = Metabolic stability assay (liver microsomes); assay type: in vitro ADME; conditions: dog liver microsomes; for Percent Remaining (%) 0 min / Percent Remaining (%) 5 min / Percent Remaining (%) 15 min / Percent Remaining (%) 30 min / Percent Remaining (%) 45 min: mean; for half-lives as compared with the reference compounds: vs Oclacitinib and ketanserin; for CLint scaled at 1 µM / half-life at 1 µM: pooled liver microsomes, pH 7.4
Procedure: Stock solutions of the sample and reference compounds were prepared in DMSO (10 mM). A spiking solution (500 μM) was prepared for each sample compound and reference compound by diluting 10 μL of the stock solution in ACN (190 μL). A microsomal spiking solution having a microsome concentration of 0.75 mg/mL was prepared for each sample: 1.5 μL of the respective 500 μM spiking solution was mixed with 18.75 μL microsomal solution (pooled liver microsomes, 20 mg/mL in 250 mM sucrose, Corning, Cat. No. 452601, Lot. No. 8176003) and 479.75 μL buffer (0.1 M potassium phosphate buffer, 1.0 mM EDTA, pH 7.4). The microsomal spiking solutions were cooled on ice. Assay plates with wells designated for different time points (0, 5, 15, 30 and 45 minutes) were cooled on ice. 30 μL of each microsomal spiking solution was added to the wells designated for different time points (0, 5, 15, 30 and 45 minutes). 135 μL of ACN containing IS was added to the wells of the plate labelled 0 minutes followed by 15 μL of the NaDPH stock solution (6 mM NaDPH in 0.1 M Potassium Phosphate buffer, 1.0 mM EDTA, pH 7.4). The plates for 5, 15, 30 and 45 minutes were incubated at 37° C. for 5 minutes. At 5 min, […], 30 min, and 45 min, 135 μL of ACN containing IS was added to the wells of the corresponding plates to quench the reaction. The plates were shaken [IKA vibrator, MTS 2/4] for 10 minutes and centrifuged at 5594 G for 15 minutes (Thermo Multifuge×3R). 50 μL of the supernatant from each well was transferred to a 96-well sample plate containing 50 μL of ultrapure water (Millipore, ZMQS50F01) for LC-MS analysis.

Chain of JAK1 (P23458 whole entry): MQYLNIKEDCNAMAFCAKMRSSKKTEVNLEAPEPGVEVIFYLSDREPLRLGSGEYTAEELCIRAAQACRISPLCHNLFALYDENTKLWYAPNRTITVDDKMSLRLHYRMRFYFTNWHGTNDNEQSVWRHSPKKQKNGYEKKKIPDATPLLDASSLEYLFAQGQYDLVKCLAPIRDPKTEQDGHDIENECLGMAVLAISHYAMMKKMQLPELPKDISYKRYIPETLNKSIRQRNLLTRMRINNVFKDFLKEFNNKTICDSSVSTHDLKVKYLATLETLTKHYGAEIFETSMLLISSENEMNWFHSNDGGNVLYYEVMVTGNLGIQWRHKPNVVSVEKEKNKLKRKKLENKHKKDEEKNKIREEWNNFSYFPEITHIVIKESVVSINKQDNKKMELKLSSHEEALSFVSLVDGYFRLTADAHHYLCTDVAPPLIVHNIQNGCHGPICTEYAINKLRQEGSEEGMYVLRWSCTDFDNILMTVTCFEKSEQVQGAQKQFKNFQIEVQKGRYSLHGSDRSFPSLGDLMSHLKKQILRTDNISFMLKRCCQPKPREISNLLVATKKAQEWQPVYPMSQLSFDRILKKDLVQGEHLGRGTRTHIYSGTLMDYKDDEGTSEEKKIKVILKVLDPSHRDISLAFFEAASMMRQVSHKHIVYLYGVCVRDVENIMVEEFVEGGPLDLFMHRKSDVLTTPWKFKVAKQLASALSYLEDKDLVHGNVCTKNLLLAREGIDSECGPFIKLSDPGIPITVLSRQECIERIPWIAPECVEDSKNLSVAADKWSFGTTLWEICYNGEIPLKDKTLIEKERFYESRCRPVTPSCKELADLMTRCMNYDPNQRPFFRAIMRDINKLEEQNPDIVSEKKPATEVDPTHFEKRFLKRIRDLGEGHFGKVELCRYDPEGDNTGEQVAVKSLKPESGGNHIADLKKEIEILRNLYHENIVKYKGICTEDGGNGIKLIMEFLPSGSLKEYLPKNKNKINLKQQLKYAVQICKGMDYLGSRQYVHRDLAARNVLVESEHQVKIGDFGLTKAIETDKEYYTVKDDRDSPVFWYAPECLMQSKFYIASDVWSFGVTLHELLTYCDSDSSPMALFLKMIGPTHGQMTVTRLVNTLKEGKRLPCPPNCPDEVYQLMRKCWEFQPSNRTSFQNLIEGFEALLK
Chain of TYK2 (P29597 whole entry): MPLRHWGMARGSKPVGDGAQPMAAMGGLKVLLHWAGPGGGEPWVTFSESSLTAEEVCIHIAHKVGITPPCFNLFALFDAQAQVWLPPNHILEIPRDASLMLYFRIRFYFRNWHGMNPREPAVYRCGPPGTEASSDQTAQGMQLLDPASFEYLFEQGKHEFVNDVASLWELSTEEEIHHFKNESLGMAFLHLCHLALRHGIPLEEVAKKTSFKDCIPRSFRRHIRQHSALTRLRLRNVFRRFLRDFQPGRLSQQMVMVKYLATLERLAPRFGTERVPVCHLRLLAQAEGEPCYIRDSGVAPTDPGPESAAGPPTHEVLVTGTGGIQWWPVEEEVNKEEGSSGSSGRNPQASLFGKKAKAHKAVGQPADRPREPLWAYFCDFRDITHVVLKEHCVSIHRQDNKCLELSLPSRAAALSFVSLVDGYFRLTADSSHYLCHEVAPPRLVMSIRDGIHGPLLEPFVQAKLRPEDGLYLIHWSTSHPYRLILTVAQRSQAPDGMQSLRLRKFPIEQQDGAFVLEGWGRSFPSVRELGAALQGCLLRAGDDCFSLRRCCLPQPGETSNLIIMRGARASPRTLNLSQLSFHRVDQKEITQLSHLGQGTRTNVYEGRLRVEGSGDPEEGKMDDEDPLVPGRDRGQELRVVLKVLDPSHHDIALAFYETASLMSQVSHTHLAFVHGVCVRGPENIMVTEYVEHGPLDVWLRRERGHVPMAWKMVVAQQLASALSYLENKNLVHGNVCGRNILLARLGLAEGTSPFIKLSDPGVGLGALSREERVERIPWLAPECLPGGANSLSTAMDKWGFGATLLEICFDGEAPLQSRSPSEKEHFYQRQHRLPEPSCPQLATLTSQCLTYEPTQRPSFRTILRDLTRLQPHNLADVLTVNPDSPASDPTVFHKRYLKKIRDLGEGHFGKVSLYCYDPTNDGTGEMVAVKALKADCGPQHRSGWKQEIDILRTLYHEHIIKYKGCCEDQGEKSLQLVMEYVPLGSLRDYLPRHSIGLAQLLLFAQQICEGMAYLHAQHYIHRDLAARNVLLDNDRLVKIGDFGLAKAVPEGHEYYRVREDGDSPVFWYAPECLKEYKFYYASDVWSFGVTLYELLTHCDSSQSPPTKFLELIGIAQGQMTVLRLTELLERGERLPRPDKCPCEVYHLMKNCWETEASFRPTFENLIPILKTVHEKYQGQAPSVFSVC
Chain of JAK3 (P52333 whole entry): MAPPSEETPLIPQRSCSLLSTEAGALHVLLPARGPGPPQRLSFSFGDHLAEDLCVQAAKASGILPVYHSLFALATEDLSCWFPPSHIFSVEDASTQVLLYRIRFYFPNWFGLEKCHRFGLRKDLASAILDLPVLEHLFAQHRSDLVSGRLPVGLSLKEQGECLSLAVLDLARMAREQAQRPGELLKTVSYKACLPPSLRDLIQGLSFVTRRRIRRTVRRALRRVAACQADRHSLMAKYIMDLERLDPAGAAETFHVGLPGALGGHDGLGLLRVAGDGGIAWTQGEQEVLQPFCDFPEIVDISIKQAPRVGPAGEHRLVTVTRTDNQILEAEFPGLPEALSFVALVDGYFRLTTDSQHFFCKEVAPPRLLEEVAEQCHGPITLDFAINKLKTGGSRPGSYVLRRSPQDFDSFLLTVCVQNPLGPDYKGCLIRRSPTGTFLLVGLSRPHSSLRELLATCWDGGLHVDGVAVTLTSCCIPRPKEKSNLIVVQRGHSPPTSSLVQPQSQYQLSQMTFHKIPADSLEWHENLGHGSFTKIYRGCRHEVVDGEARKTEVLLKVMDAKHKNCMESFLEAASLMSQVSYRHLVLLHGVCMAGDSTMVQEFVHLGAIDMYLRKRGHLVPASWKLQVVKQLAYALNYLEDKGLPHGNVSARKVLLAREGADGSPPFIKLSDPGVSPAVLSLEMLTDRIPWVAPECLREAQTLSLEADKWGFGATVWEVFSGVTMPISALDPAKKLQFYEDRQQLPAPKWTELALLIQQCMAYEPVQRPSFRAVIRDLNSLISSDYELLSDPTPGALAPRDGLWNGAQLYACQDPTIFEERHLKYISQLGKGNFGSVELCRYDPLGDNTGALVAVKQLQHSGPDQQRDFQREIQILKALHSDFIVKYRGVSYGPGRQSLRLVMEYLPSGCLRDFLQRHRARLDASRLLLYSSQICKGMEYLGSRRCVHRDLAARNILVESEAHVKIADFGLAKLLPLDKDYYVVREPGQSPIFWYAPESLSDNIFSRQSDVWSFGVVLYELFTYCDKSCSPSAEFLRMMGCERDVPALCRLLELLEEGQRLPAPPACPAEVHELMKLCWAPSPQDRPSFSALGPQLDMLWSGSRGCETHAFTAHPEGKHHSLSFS
Chain of JAK2 (O60674 whole entry): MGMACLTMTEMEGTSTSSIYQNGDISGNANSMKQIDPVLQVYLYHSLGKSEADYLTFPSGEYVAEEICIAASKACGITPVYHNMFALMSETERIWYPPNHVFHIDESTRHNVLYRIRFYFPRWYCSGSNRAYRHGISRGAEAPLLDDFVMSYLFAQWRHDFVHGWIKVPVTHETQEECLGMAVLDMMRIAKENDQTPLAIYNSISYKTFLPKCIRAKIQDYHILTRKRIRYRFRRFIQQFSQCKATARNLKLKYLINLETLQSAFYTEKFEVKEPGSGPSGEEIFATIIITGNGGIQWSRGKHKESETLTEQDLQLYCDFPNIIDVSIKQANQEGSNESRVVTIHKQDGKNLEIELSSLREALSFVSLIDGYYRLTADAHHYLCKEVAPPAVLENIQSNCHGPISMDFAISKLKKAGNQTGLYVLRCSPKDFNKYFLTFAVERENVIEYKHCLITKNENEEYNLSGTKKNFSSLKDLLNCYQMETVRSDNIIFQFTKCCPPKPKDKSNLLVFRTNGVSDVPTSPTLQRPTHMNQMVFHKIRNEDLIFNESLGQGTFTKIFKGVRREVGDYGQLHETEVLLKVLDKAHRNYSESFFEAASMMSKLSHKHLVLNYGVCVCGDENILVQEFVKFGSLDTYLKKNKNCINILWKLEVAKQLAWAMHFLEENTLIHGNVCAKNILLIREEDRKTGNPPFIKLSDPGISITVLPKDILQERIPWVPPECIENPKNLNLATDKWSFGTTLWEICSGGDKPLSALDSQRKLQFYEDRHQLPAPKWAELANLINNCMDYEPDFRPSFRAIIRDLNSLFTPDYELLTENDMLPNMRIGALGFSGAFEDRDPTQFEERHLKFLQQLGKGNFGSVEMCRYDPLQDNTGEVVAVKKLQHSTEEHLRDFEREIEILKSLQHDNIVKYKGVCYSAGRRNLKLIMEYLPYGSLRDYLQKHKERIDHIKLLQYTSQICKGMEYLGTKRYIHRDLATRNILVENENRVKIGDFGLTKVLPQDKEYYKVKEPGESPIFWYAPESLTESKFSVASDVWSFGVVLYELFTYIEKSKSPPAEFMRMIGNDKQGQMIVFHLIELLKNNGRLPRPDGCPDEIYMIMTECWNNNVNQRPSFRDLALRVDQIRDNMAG

IC50 (TYK2) [nM]	IC50 (JAK2) [nM]	IC50 (JAK3) [nM]	IC50 (JAK1) [nM]	selectivity for JAK1 over JAK2 (JAK1)	selectivity for JAK1 over JAK3 (JAK1) [fold]	Percent Remaining (%) 0 min [1] [%]	Percent Remaining (%) 5 min [1] [%]	Percent Remaining (%) 15 min [1] [%]	Percent Remaining (%) 30 min [1] [%]	Percent Remaining (%) 45 min [1] [%]	half-lives as compared with the reference compounds [1]	CLint scaled at 1 µM [1] [mL/min/kg]	half-life at 1 µM [1] [min]	Compound
3820	292	618	156	87%	3.96									CNC(=O)N[C@H]1CC[C@H](N(C)c2ncnc3[nH]ccc23)CC1 [Compound 1, 1-methyl-3-((1r,4r)-4-(methyl(7H-pyrrolo[2,3-d]pyrimidin-4-yl)amino)cyclohexyl)urea]
1510	70	207	19	3.7 fold	10.9	100.00	94.76	86.94	75.53	73.67	dramatically improved half-lives	35.4	97.7	CCCNC(=O)N[C@H]1CC[C@@H](N(C)c2ncnc3[nH]ccc23)CC1 [Compound 3, 1-propyl-3-((1r,4r)-4-(methyl(7H-pyrrolo[2,3-d]pyrimidin-4-yl)amino)cyclohexyl)urea]
77	9.3	70	6.6	45%	10.6	100.00	94.12	82.56	68.65	62.97		53	65.2	CNS(=O)(=O)C[C@H]1CC[C@H](N(C)c2ncnc3[nH]ccc23)CC1 [Oclacitinib, reference compound]
335	14	42	2.3	6 fold	18.3	100.00	93.91	85.39	76.25	71.95	dramatically improved half-lives	36.5	94.7	CN(c1ncnc2[nH]ccc12)[C@H]1CC[C@H](NC(=O)NCC(F)(F)F)CC1 [Compound 6, 1-((1r,4r)-4-(methyl(7H-pyrrolo[2,3-d]pyrimidin-4-yl)amino)cyclohexyl)-3-(2,2,2-trifluoroethyl)urea]
1790	126	447	43	2.9 fold	10.4									CCNC(=O)N[C@H]1CC[C@H](N(C)c2ncnc3[nH]ccc23)CC1 [Compound 2, 1-ethyl-3-((1r,4r)-4-(methyl(7H-pyrrolo[2,3-d]pyrimidin-4-yl)amino)cyclohexyl)urea]
						100.00	82.91	62.01	42.37	36.16		114	30.3	O=C(c1ccc(F)cc1)C1CCN(CCn2c(=O)[nH]c3ccccc3c2=O)CC1 [ketanserin, reference compound]
2710	134	615	40	3.35 fold	15.4									CC(C)NC(=O)N[C@H]1CC[C@H](N(C)c2ncnc3[nH]ccc23)CC1 [Compound 4, 1-isopropyl-3-((1r,4r)-4-(methyl(7H-pyrrolo[2,3-d]pyrimidin-4-yl)amino)cyclohexyl)urea]
415	18	26	7.5	2.4 fold	3.5	100.00	100.66	95.39	87.57	86.91	dramatically improved half-lives	18.2	189	CN(c1ncnc2[nH]ccc12)[C@H]1CC[C@H](NC(=O)NCC#N)CC1 [Compound 5, 1-(cyanomethyl)-3-((1r,4r)-4-(methyl(7H-pyrrolo[2,3-d]pyrimidin-4-yl)amino)cyclohexyl)urea]
